Measured values: US11981669B2, “1,7-naphthyridine derivative and preparation method and use therefor” (CSPC ZHONGQI PHARMACEUTICAL TECHNOLOGY (SHIJIAZHUANG) CO., …, priority 2018, dated 2024)
“And” between values parts separate entries of the source, which are not always exact repeats. Equal entries are not always repeated.

Key:
erythropoietin = experiment: Expression of erythropoietin in vivo (plasma EPO ELISA after single oral dose); details: once, plasma 6 hours after administration;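 further: male C57 mice given compound by mouth, five animals per treatment group, with EPO in plasma measured by ELISA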
Description: (2) 30 c57 mice, male, were divided into 6 groups, 5 mice in each treatment group. […] 6 hours after the administration, blood was taken, and plasma was collected for EPO detection with an ELISA kit (R&D Co.).

reticulocytes = experiment: Effect on reticulocytes of normal mice; assay type: in vivo, Balb/c mice; parameters: Reticulocytes (RETIC), average: unit not given here; details: 100 IU/kg i.p., once; 72 h after administration
Description: 72 Balb/c mice, male, were divided into 12 groups, 6 mice in each treatment group. In the positive drug control groups: the mice in the FG-4592 treatment groups were orally administered once, at two doses of 10 mg/kg and 50 mg/kg, and the mice in the rhEPO treatment group was intraperitoneaily injected once, at a dose of 100 IU/kg. The compounds of the present disclosure were all orally administered once at a dose of 10 mg/kg. 72 h after the administration, blood was collected from the orbit of all animals, and subjected to EDTA-K2 anticoagulation. Then reticulocytes (RETIC) were counted with an automatic blood cell analyzer.

HIF-2α = experiment: Expression of HIF-2α protein in Hep3B cells (western blot, grayscale analysis); assay type: cell-based, Human; details: for fold induction at 30 µM: Homo sapiens, 2 h, compound at 30 μM, 10 μM and 3 μM, read-out: HIF-2α level of the compound of the present disclosure/HIF-2α level of blank control
Description: (§1) A test compound was dissolved in dimethyl sulfoxide into a 100 mM stock solution, and then was diluted with 0.5% FBS-containing DMEM medium into 30 μM, 10 μM and 3 μM for later use. Human liver cancer cells Hep3B were seeded in a six-well plate at a density of 2.25*10^5 cells/well, 2 mL per well. After cultivation overnight, the cells were treated with compounds at different concentrations for 2 h. The proteins were extracted for western blot and further grayscale analysis.

HIF-1α = experiment: Expression of HIF-1α protein in Hep3B cells (western blot, grayscale analysis); assay type: cell-based, Human; details: for fold induction at 30 µM: Homo sapiens, 2 h, compound at 30 μM, 10 μM and 3 μM, read-out: HIF-1α level of the compound of the present disclosure/HIF-1α level of blank control
Description: as §1

| Compound | EPO OD value (erythropoietin; 10 mg/kg) | EPO OD value (erythropoietin; 50 mg/kg) | Reticulocytes (RETIC), average (reticulocytes) | Reticulocytes (RETIC), individual animals No. 1-6 (reticulocytes) | HIF-2α protein expression compared with blank control (HIF-2α) | fold induction at 30 µM (HIF-2α) | HIF-1α protein expression compared with blank control (HIF-1α) | fold induction at 30 µM (HIF-1α) |
| --- | --- | --- | --- | --- | --- | --- | --- | --- |
| O=C(O)CNC(=O)c1nc(Cl)c2nc(Oc3cccnc3)ccc2c1O [Link-120, 2-(2-(pyrid-3-yloxy)-5-hydroxy-8-chloro-1,7-naphthyridine-6-formamido) Acetic Acid] | A (A represents 1.0<EPO OD value<1.5) | A (A represents 1.0<EPO OD value<1.5) |  |  |  |  |  |  |
| rhEPO: positive drug control, intraperitoneally injected once at 100 IU/kg |  |  | 6.58 | 5.9 (2×) and 6.6 (2×) and 7.1 and 7.4 |  |  |  |  |
| O=C(O)CNC(=O)c1nc(Br)c2nc(Oc3ccc(F)cc3)ccc2c1O [Link-131, 2-(2-(4-fluorophenoxy)-5-hydroxy-8-bromo-1,7-naphthyridine-6-formamido) Acetic Acid] | A (A represents 1.0<EPO OD value<1.5) | A (A represents 1.0<EPO OD value<1.5) |  |  | higher than that of the blank control | 4.5 to 8.5 | higher than that of the blank control | 4.5 to 8.5 |
| CC(C)(C)C(=O)OCOC(=O)CNC(=O)c1nc(Cl)c2nc(Oc3ccccc3)ccc2c1O [Link-135, methyl (2-(2-phenoxy-5-hydroxy-8-chloro-1,7-naphthyridine-6-formamido)acetoxy) pivalate] | B (B represents 1.5<EPO OD value<2) | B (B represents 1.5<EPO OD value<2) |  |  |  |  |  |  |
| COc1ccc(Oc2ccc3c(O)c(C(=O)NCC(=O)O)nc(Cl)c3n2)cc1 [Link-119, 2-(2-(4-methoxyphenoxy)-5-hydroxy-8-chloro-1,7-naphthyridine-6-formamido) Acetic Acid] | A (A represents 1.0<EPO OD value<1.5) | A (A represents 1.0<EPO OD value<1.5) |  |  |  |  |  |  |
| O=C(O)CNC(=O)c1nc(Cl)c2nc(Cl)ccc2c1O [Link-122, 2-(2,8-dichloro-5-hydroxy-1,7-naphthyridine-6-formamido) acetic acid] | A (A represents 1.0<EPO OD value<1.5) | B (B represents 1.5<EPO OD value<2) |  |  |  |  |  |  |
| O=c1c(-n2ccnn2)c[nH]n1-c1cc(N2CCOCC2)ncn1 [BAY85-3934, reference compound] | B (B represents 1.5<EPO OD value<2) | D (D represents EPO OD value>3) |  |  |  |  |  |  |
| CCOc1ccc2c(O)c(C(=O)NCC(=O)O)nc(Cl)c2n1 [Link-134, 2-(2-ethoxy-5-hydroxy-8-chloro-1,7-naphthyridine-6-formamido) Acetic Acid] | A (A represents 1.0<EPO OD value<1.5) | A (A represents 1.0<EPO OD value<1.5) |  |  | higher than that of the blank control | 1 to 4.5 | higher than that of the blank control | 1 to 4.5 |
